# Assay results reported in patent EP2711366A1, “Cationic triphenylamine derivatives activable by visible and Infra Red light for inducing and imaging apoptosis in cancer cells” (Institut Curie, priority 2012, dated 2014).
# Legend:
# DNA = conditions: cited from earlier work
# living MCF-7 cells = test: One-photon confocal fluorescence microscopy, photo-induced nuclear translocation and membrane blebbing; format: cell-based
# Method: One-photon epifluorescence and confocal images were obtained using a SP2 confocal microscope (Leica MicroSystem) equipped with an incubation chamber (37°C, CO2 5%). Excitation and emission filters for epifluorescence were 450-490 nm and 515-700 nm, respectively. A continuous laser line (458 nm) was used for excitation in the confocal mode.
# The photo-induced nuclear translocation and membrane blebbing were next assessed using confocal fluorescence microscopy [λexc = 458 nm; emission slit settings: 560-720nm and 530-690nm for TP2Py and TP3Bzim, respectively] under experimental conditions similar to those described in experiment 1 for epifluorescence experiments. The corresponding transmission images illustrating the concomitant membrane blebbing are shown below the confocal fluorescence images. Living MCF7 cells were incubated with 2µM TP3Bzim or TP2Py for 2 hours before observation. As shown in Fig. 5A (TP2Py) and in Fig. 5B (TP3BZim), the results obtained with confocal imaging were similar to those obtained with epifluorescence imaging (experiment 1), with however, some discrepancies in the time courses of event appearance, most likely due to the power of the excitation source which is different between epifluorescence and confocal experiments (see below). […] Based on both criteria (re-localization of the fluorescence signal and the formation of blebs), the deduced fluences were 22 and 40 J/cm^2 for TP2Py and TP3Bzim, respectively. […]
# The TP2Py compound at a concentration of 2 µM was first incubated with living MCF-7 cells for 2 hours and then observed with confocal microscope with varying illumination power of the laser source [λ=458 nm; emission slit setting: 560-720 nm]. […] For each condition, the fluorescence intensity in ROIs corresponding to the nucleus was plotted as a function of time (the initial time value, t = 0, represents the first observation) (FIG.7C). Using integration time based on tmax values, light dose values, determined from experiments performed at irradiance of 5.6 or 30 mW/cm^2, were consistent (27.6 and 27 J/cm^2 respectively). These values are in accordance with the above-mentioned value for TP2Py (fluence, 22 J/cm^2 in Fig. 5).
# Living MCF-7 cells were treated with varying concentrations of TP2Py for two hours (2µM; 0.2µM and 0.02µM) and observed with a confocal microscope [λexc = 458nm; irradiance 30mW/cm^2, emission slit setting: 560-720nm.] (FIG 8A: 2µM; FIG 8B: 0.2µM; FIGBC: 0.02µM).
# [1] = test system: ROS (reactive oxygen species) in MCF7 cells; test: Fluorescence detection of ROS generation with H2DCF-DA probe, flow cytometry; format: cell-based; conditions: 2µM, 2 hours
# Method: CF-7 cells were plated in 12-well plates (2.10^5 cells/well) and incubated with 2µM of TP2Py for 2h at 37°C. After a time illumination of 30 min [Irradiance, 40mW/cm^2. The source of excitation was a Mercury lamp (130 W; 380-600 nm) with an excitation filter centered at 452 nm (± 45 nm)], cells were gently scraped, individualized in PBS-EDTA (10 mM) and stained with 10µM of […] (H2DCF-DA) (Molecular Probe, USA) for 45 min. Cells were then washed in ice-cold HEPES buffer before analysis. Fluorescence signals of H2DCF-DA and TP2Py were measured by FACSCalibur flow cytometer using FL1 and FL2 detectors, respectively.
# Different experiments are summarized below: • Control MCF7 cells were treated with DMSO (1%) (Fig.13A) without light exposure; • MCF7 cells were plated and treated with H2DCF-DA and 2µM TP2Py for 2 hours without light exposure (Fig.13B); • MCF7 cells were plated and treated with H2DCF-DA and 2µM TP2Py for 2 hours after a time illumination of 30 min (Fig.13C)
# The horizontal (FL1-H) and vertical (FL2-H) axes correspond to fluorescence signals of H2DCF-DA and TP2Py, respectively.
# [2] = Dark toxicity (MTT assay, without illumination); format: cell-based; conditions: human; MCF-7 cells, tested in dark; read-out: TC50 (toxicity concentration 50%), dark toxicity
# Method: Different experiments were conducted and described below: • MCF7 cells were treated with 2µM of TP2Py or TP3Bzim and exposed to illumination (Fig.9A); • HeLa cells were treated with 2µM of TP2Py or TP3Bzim and exposed to illumination (Fig.9B); • MCF7 cells were treated with TP2Py, 40 min illumination (black circles) or without illumination (white circles) (Fig.9C) • HeLa cells were treated with TP2Py [30 min illumination (black circles) or without illumination (white circles)] or TP3Bzim [15 min illumination (black triangles) or without illumination (white triangles)]
# For each experiment, the source of excitation was a Mercury lamp (130W; 380-600nm) with an excitation filter centered at 452nm (± 45 nm), irradiance, 60mW/cm^2.
# First, the experiment was calibrated by determining the time of illumination exposure which leads to the toxicity 50%, for a given concentration of TPA (2 µM) and for an irradiance of 60mW/cm^2. […] This characteristic time was then used for the plots shown in Fig. 9C and 9D which represent the cell viability as a function of TPA concentration (in HeLa and MCF-7 cells, respectively).
# [3] = 2µM, 2 hours, λexc 458 nm, irradiance 30 mW/cm^2
smiles,measurement,setting,value
C[n+]1ccc(/C=C/c2ccc(N(c3ccccc3)c3ccc(/C=C/c4cc[n+](C)cc4)cc3)cc2)cc1 [TP2Py],"maximum of emission in vitro, DNA-bound",DNA; Allains et al. 2007,634 nm
same,"λmax,emission",DNA; b156 attributes 634 nm to DNA-bound TP2Py in vitro (Allains et al. 2007),634 nm
same,time at which the first blebs appeared,"living MCF-7 cells; 20nM, constant light excitation, transmission mode",75 min
same,light dose,"living MCF-7 cells; 0.2µM, irradiance 30 mW/cm^2",306 J/cm^2
same,tmax of nuclear re-localization,"living MCF-7 cells; 0.2µM, irradiance 30 mW/cm^2",> 2 h
same,deduced fluence (re-localization of the fluorescence signal and formation of blebs),"living MCF-7 cells; 2µM, 2 hours, confocal, λexc 458 nm (Fig. 5)",22 J/cm^2
same,lag period before increase of fluorescence emission intensity in the nucleus,living MCF-7 cells; [3],2 to 4 min
same,time of maximum fluorescence emission intensity in the nucleus,living MCF-7 cells; [3],8 to 10 min
same,light dose (integration time based on tmax),"living MCF-7 cells; 2 µM, irradiance 5.6 mW/cm^2",27.6 J/cm^2
same,tstart of nuclear re-localization,"living MCF-7 cells; 2 µM, irradiance 5.6 mW/cm^2",50 min
same,light dose (integration time based on tmax),"living MCF-7 cells; 2 µM, irradiance 30 mW/cm^2",27 J/cm^2
same,tmax of nuclear re-localization,"living MCF-7 cells; 2 µM, irradiance 30 mW/cm^2",0.25 h
same,tstart of nuclear re-localization,"living MCF-7 cells; 2 µM, irradiance 30 mW/cm^2",4 min
same,"HMFI population (H2DCF-DA positive, TP2Py positive)","[1]; 30 min illumination, 40mW/cm^2",15.4%
same,"HMFI population (H2DCF-DA positive, TP2Py positive)",[1]; without light exposure,4.9%
same,CC50,[2],> 30 µM
